From article PMC10096180, “Half-Sandwich Type Platinum-Group Metal Complexes of C-Glucosaminyl Azines: Synthesis and Antineoplastic and Antimicrobial Activities” (Molecules, 2023)
Read-outs that look alike come from different tables or passages of the source.

Experiments:
[1] = test system: primary human dermal fibroblasts; assay: MTT reduction assay, early toxicity, 4 h treatment; assay type: cell-based; conditions: up to 100 μM
Protocol: (§1) The complexes described above are intended to replace registered platinum complexes. Platinum complexes constitute the core of the chemotherapy regimen used in ovarian cancer; therefore, we used a cellular model of ovarian cancer, A2780, and primary human dermal fibroblasts as models of non-transformed cells (controls). For the characterization of the complexes, we used an MTT assay after 4 h of treatment for the detection of early toxicity and an SRB assay 48 h after treatment for the detection of cytostasis.
(§2) An MTT reduction assay was measures the activity of mitochondrial complex I and can be used to detect toxicity. The assay was performed in a manner similar to that described in [84]. Briefly, cells were plated in 96-well plates the day before the assay. Cells were treated with the compounds for 4 h; then, MTT was added to a 0.5 mg/mL final concentration, and cells were incubated at 37 °C in a cell incubator for 40–60 min as a function of the cell line being assessed. Culture medium was removed, the reduced MTT dye was dissolved in dimethyl-sulfoxide, and plates were measured in a plate photometer (Thermo Scientific Multiscan GO spectrophotometer, Waltham, MA, USA) at 540 nm. On each plate, wells were designed to contain vehicle-treated cells. In calculations, the readings for these wells were considered to 1, and all readings were expressed relative to these values.
(§3) Statistical analysis was performed using version 8.0.1 of GraphPad Prism. Values were tested for normal distribution using the Shapiro–Wilk normality test. Nonlinear regression was performed using the built-in “[Inhibitor] vs. response—Variable slope (four parameters), least square fit” utility of GraphPad, which yielded IC50 and Hill slope values if the sigmoid curves reached a plateau of inhibition and there was no decrease between two subsequent data points or when inhibition was over 90%. In other cases, the percentage of inhibition was taken for the maximum concentration (100 μM).

A2780 cells [2] = assay: MTT reduction assay, early toxicity, 4 h treatment; assay type: cell-based; conditions: inhibition at maximum concentration (100 μM) where no plateau, ND = not detectable
Protocol: as §1, §2, §3

[3] = test system: methicillin-resistant Staphylococcus aureus (MRSA) clinical isolates; assay: Broth microdilution MIC, clinical MRSA isolates; assay type: cell-based; conditions: 24 h, 0.08–40 μM
Protocol: (§4) We used a set of clinical isolates of S. aureus and E. faecium that were collected at the Medical Center of the University of Debrecen (Hungary) between 1 January 2018. and 31 December 2020. The clinical isolates were identified using a Microflex MALDI-TOF mass spectrometer (Bruker, Billerica, MA, USA). The antibiotic susceptibility of the isolates was tested following the European Committee on Antimicrobial Susceptibility Testing (EUCAST) guidelines, which were valid at the time of collection.
(§5) Microdilution experiments were performed according to the standards of EUCAST [85]. The bacterial isolates to be tested were grown on Mueller–Hinton agar plates. The inoculum density of bacteria was set at 5.0 × 10^5 CFU/mL in microtiter plates in a final volume of 200 μL Mueller–Hinton broth. The tested concentration range was 0.08–40 μM (10 concentrations, twofold serial dilutions), and a drug-free growth control and an inoculum-free negative control were included. The inoculated plates were incubated for 24 h at 37 °C, then visually assessed. Minimum inhibitory concentration (MIC) was defined as the lowest concentration with a 50%≤ inhibitory effect compared to the growth control. All experiments were performed at least twice in duplicate.

[4] = test system: Staphylococcus aureus (ATCC29213); assay: Broth microdilution MIC, reference strain; assay type: cell-based; conditions: 0.08–40 μM, read-out: MIC S. aureus ATCC 29213
Protocol: (§6) The reference strains of Staphylococcus aureus (ATCC29213) and Enterococcus faecalis (ATCC29212) were purchased from the ATCC (Manassas, VA, USA).
as §5

[5] = test system: Enterococcus faecalis (ATCC29212); assay: Broth microdilution MIC, reference strain; assay type: cell-based; conditions: 24 h, tested range 0.08–40 μM, read-out: MIC E. faecalis ATCC 29,212
Protocol: as §6, §5

A2780 cells [6] = assay: SRB binding assay, cytostasis, 48 h treatment; assay type: cell-based; conditions: for A2780 SRB Max Inhibition: up to 100 μM, ND = not detectable
Protocol: as §1
An SRB assay measures protein content of cells in correlation with the cell number in an assay well and can therefore be used to assess cell proliferation or long-term cytostasis. Cells were seeded in 96-well plates the day before the assay. Cells were treated with the compounds for 48 h. Then medium was removed, and cells were fixed with 10% trichloroacetic acid. Fixed cells were washed in distilled water 3 times, followed by staining with SRB (0.4 m/V% dissolved in 1% acetic acid) for 10 min. Stained cells were washed in 1% acetic acid 5 times; acetic acid was removed, and cells were left to dry. Protein-bound SRB was released by adding 100 μL 10 mM Tris base. Plates were measured in a plate photometer (Thermo Scientific Multiscan GO spectrophotometer, Waltham, MA, USA) at 540 nm. On each plate, wells were designed to contain vehicle-treated cells. In calculations, the readings for these wells were considered to be 1, and all readings were expressed relative to these values.
as §3

[7] = test system: vancomycin-resistant Enterococcus (VRE) clinical isolates; assay: Broth microdilution MIC, clinical VRE isolates; assay type: cell-based, E. faecium; conditions: 24 h, 0.08–40 μM
Protocol: as §4, §5

[8] = Distribution coefficient (logD), n-octanol-PBS; assay type: physicochemical; conditions: n-octanol-PBS (pH = 7.4) system
Protocol: The logD values of the newly synthesized complexes were determined according to a procedure described in our previous publications. page 64: Ir-7b +1.17 Rh-7b +1.41 Ru-7c +1.31 Os-7c +1.59 Ir-7c +1.40 Rh-7c +1.13 Ru-7d +1.26 Os-7d +1.42 Ir-7d +1.30 Rh-7d +1.04 Ru-7e +2.22 Os-7e +2.21 Ir-7e +1.39 Rh-7e +1.66 *logD was determined in an n-octanol-PBS (pH = 7.4) system 64 (14 pictures or pasted objects on this page, not shown here)

[9] = clinical isolate 20,426 MRSA, read-out: MIC 20,426 MRSA
[10] = clinical isolate 24,035 MRSA, read-out: MIC 24,035 MRSA
[11] = clinical isolate 24,268 MRSA, read-out: MIC 24,268 MRSA
[12] = clinical isolate 24,272 MRSA, read-out: MIC 24,272 MRSA
[13] = clinical isolate 24,328 MRSA, read-out: MIC 24,328 MRSA
[14] = clinical isolate 24,408 MRSA, read-out: MIC 24,408 MRSA
[15] = clinical isolate 25,051 VRE, read-out: MIC 25,051 VRE
[16] = clinical isolate 25,498 VRE, read-out: MIC 25,498 VRE
[17] = clinical isolate 27,085 VRE, read-out: MIC 27,085 VRE

| Compound | MIC [3, 9] [µM] | MIC [3, 10] [µM] | MIC [3, 11] [µM] | MIC [3, 12] [µM] | MIC [3, 13] [µM] | MIC [3, 14] [µM] | MIC ([4]; 24 h) [µM] | MIC [5] [µM] | MIC [7, 15] [µM] | MIC [7, 16] [µM] | MIC [7, 17] [µM] | logD [8] | IC50 (A2780 cells [6]) [µM] | Fibroblast MTT Max Inhibition [1] [%] | A2780 MTT Max Inhibition (A2780 cells [2]) [%] | A2780 SRB Max Inhibition (A2780 cells [6]) [%] | other results |
| --- | --- | --- | --- | --- | --- | --- | --- | --- | --- | --- | --- | --- | --- | --- | --- | --- | --- |
| Cc1c(C)c(C)[c-](C)c1C.F[P-](F)(F)(F)(F)F.NC1C(c2cccnn2)OC(COC(=O)c2ccccc2)C(OC(=O)c2ccccc2)C1OC(=O)c1ccccc1.[Cl][Ir+2] (mixture of isomers) [Ir-7b] | 40 | 40 | 40 | 40 | 40 | 40 | >40 | 40 | 40 | 40 | 40 | 1.17 | – | 27.22 | 53.39 | 77.58 | – |
| Cc1ccc(C(C)C)cc1.F[P-](F)(F)(F)(F)F.NC1C(c2cccnn2)OC(COC(=O)c2ccccc2)C(OC(=O)c2ccccc2)C1OC(=O)c1ccccc1.[Cl][Os+] (mixture of isomers) [Os-7b] | 10 | 10 | 10 | 10 | 20 | 10 | 20 | 10 | 10 | 10 | 10 | 1.32 | 56.4 | 27.22 | 53.39 | >90 | – |
| N[C@@H]1[C@@H](OC(=O)c2ccccc2)[C@H](OC(=O)c2ccccc2)[C@@H](COC(=O)c2ccccc2)O[C@H]1c1cccnn1 [Complex 7b, 3-(2′-Amino-2′-deoxy-3′,4′,6′-tri-O-benzoyl-β-D-glucopyranosyl)pyridazine] | – | – | – | – | – | – | – | – | – | – | – | – | – | 11.39 | – | 18.38 | inhibition at 100 µM (A2780 cells [2]; Homo sapiens, read-out: A2780 MTT Max Inhibition): 9.12%; MIC ([3]; Staphylococcus aureus, clinical isolate 20,426 MRSA, read-out: MIC 20,426 MRSA): > 40 µM; MIC ([3]; Staphylococcus aureus, clinical isolate 24,035 MRSA, read-out: MIC 24,035 MRSA): > 40 µM; MIC ([3]; Staphylococcus aureus, clinical isolate 24,268 MRSA, read-out: MIC 24,268 MRSA): > 40 µM; MIC ([3]; Staphylococcus aureus, clinical isolate 24,272 MRSA, read-out: MIC 24,272 MRSA): > 40 µM; MIC ([3]; Staphylococcus aureus, clinical isolate 24,328 MRSA, read-out: MIC 24,328 MRSA): > 40 µM; MIC ([3]; Staphylococcus aureus, clinical isolate 24,408 MRSA, read-out: MIC 24,408 MRSA): > 40 µM; MIC ([4]; Staphylococcus aureus, ATCC29213, 24 h): > 40 µM; MIC ([5]; Enterococcus faecalis): > 40 µM; MIC ([7]; Enterococcus, clinical isolate 25,051 VRE, read-out: MIC 25,051 VRE): > 40 µM; MIC ([7]; Enterococcus, clinical isolate 25,498 VRE, read-out: MIC 25,498 VRE): > 40 µM; MIC ([7]; Enterococcus, clinical isolate 27,085 VRE, read-out: MIC 27,085 VRE): > 40 µM |
| Cc1c(C)c(C)[c-](C)c1C.F[P-](F)(F)(F)(F)F.N[C@@H]1[C@@H](OCc2ccccc2)[C@H](OCc2ccccc2)[C@@H](COCc2ccccc2)O[C@H]1c1ccccn1.[Cl][Rh+2] [Rh-3a] | >40 | >40 | >40 | >40 | >40 | >40 | >40 | >40 | >40 | >40 | >40 | 1.64 | 9.81 | 37.82 | – | >90 | – |

Continued, in another order:

| MIC [3, 9] [µM] | MIC [3, 10] [µM] | MIC [3, 11] [µM] | MIC [3, 12] [µM] | MIC [3, 13] [µM] | MIC [3, 14] [µM] | MIC ([4]; 24 h) [µM] | MIC [5] [µM] | MIC [7, 15] [µM] | MIC [7, 16] [µM] | MIC [7, 17] [µM] | logD [8] | IC50 (A2780 cells [6]) [µM] | Compound | Fibroblast MTT Max Inhibition [1] [%] | A2780 MTT Max Inhibition (A2780 cells [2]) [%] | A2780 SRB Max Inhibition (A2780 cells [6]) [%] | other results |
| --- | --- | --- | --- | --- | --- | --- | --- | --- | --- | --- | --- | --- | --- | --- | --- | --- | --- |
| >40 | >40 | >40 | >40 | >40 | >40 | >40 | >40 | >40 | >40 | >40 | 1.41 | 32 | Cc1c(C)c(C)[c-](C)c1C.F[P-](F)(F)(F)(F)F.NC1C(c2cccnn2)OC(COC(=O)c2ccccc2)C(OC(=O)c2ccccc2)C1OC(=O)c1ccccc1.[Cl][Rh+2] (mixture of isomers) [Rh-7b] | 11.39 | 62.85 | >90 | – |
| >40 | >40 | >40 | >40 | >40 | >40 | >40 | >40 | >40 | >40 | >40 | 1.66 | – | Cc1c(C)c(C)[c-](C)c1C.F[P-](F)(F)(F)(F)F.N[C@@H]1[C@@H](OC(=O)c2ccccc2)[C@H](OC(=O)c2ccccc2)[C@@H](COC(=O)c2ccccc2)O[C@H]1c1ccc2ccccc2n1.[Cl][Rh+2] [Rh-7e] | – | 31.89 | 67.32 | – |
| >40 | >40 | >40 | >40 | >40 | >40 | >40 | >40 | >40 | >40 | >40 | 2.22 | – | Cc1ccc(C(C)C)cc1.F[P-](F)(F)(F)(F)F.N[C@@H]1[C@@H](OC(=O)c2ccccc2)[C@H](OC(=O)c2ccccc2)[C@@H](COC(=O)c2ccccc2)O[C@H]1c1ccc2ccccc2n1.[Cl][Ru+] [Ru-7e] | – | 27.04 | 67.50 | – |
